What was measured:
[1] = system: Rattus norvegicus; assay: Compound was evaluated in vivo, after intravenous administration for the inhibition of the pressor response induced by A II (0.75 ug/kg) in normotensive pithed rats; assay type: functional; details: read-out: ID50 (the source's name)
[2] = system: Rattus norvegicus; assay: Compound was evaluated in vivo, after peroral administration for the inhibition of the pressor response induced by A II (0.75 ug/kg) in normotensive pithed rats; assay type: functional; details: for ED50: Rattus norvegicus, po, read-out: ID50 (the source's name)
[3] = target: T1, Angiotensin II receptor (AT-1) type-1 (Rattus norvegicus, UniProt P29089+P25095); assay: Concentration required for 50% inhibition of [125I]- AII binding to rat liver membrane preparation (AT1)
T1 sequence (P29089 whole entry): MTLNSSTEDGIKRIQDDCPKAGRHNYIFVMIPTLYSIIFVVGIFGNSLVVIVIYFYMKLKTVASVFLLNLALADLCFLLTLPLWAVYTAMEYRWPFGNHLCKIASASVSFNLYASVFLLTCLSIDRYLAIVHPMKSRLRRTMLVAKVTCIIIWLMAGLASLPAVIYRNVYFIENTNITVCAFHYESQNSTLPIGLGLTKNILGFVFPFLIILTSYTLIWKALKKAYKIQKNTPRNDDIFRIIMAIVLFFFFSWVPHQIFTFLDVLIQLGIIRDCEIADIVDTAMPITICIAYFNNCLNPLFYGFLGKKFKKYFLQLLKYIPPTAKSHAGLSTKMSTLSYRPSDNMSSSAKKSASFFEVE
T1 sequence (P25095 whole entry): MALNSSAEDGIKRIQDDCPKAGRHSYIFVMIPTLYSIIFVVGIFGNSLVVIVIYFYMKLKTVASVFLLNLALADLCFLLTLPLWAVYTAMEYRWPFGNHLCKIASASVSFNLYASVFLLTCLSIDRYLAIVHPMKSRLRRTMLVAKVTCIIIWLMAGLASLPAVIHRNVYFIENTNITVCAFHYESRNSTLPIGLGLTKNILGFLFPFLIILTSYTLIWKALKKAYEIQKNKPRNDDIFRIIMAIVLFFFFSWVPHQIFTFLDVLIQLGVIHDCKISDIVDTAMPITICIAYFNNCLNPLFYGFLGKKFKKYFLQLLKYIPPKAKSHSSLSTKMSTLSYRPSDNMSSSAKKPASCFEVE

[4] = Concentration required for 50% inhibition of [125I]- AII binding to rabbit uterus membrane preparation (AT2); assay type: tissue-based, Oryctolagus cuniculus

| Compound | IC50 [3] [nM] | IC50 [4] [nM] | ED50 [1] [mg/kg] | ED50 [2] [mg/kg] | ID50 [2] [mg/kg] |
| --- | --- | --- | --- | --- | --- |
| CCCCc1nc(SC)c(C(=O)C(CCC)S(=O)(=O)c2ccccc2)n1Cc1ccc(-c2ccccc2S(=O)(=O)NC(=O)NCc2ccccc2)cc1 (configuration not stated) | 1.8 | 180 |  |  |  |
| CCCc1nc(SC)c(C(=O)CC#N)n1Cc1ccc(-c2ccccc2S(=O)(=O)NC(=O)NCc2ccccc2)cc1 | 0.3 | 110 |  |  |  |
| CCCc1nc(SC)c(C(=O)C[S+]([O-])c2ccccc2)n1Cc1ccc(-c2ccccc2S(=O)(=O)NC(=O)NCC2CCCC2)cc1 (configuration not stated) | 0.35 | 7 |  | > 3 |  |
| CCCCc1nc(SC)c(C(=O)C[S+](C)[O-])n1Cc1ccc(-c2ccccc2S(=O)(=O)NC(=O)NCc2ccccc2)cc1 (configuration not stated) | 0.3 | 15 | 0.06 | 0.7 |  |
| CCCc1nc(SC)c(C(=O)CSc2ccccc2)n1Cc1ccc(-c2ccccc2S(=O)(=O)NC(=O)NCc2ccccc2)cc1 | 0.2 | 93 |  |  |  |
| CCCCc1nc(SC)c(C(=O)CC(=O)c2ccccc2)n1Cc1ccc(-c2ccccc2S(=O)(=O)NC(=O)NCc2ccccc2)cc1 | 0.2 | 114 |  |  |  |
| CCCCc1nc(SC)c(C(=O)O)n1Cc1ccc(-c2ccccc2S(=O)(=O)NC(=O)NCCC)cc1 |  | 920 |  |  |  |
| CCCCc1nc(SC)c(C(=O)CS(C)(=O)=O)n1Cc1ccc(-c2ccccc2S(=O)(=O)NC(=O)NCc2ccccc2)cc1 | 0.08 | 5.8 | 0.04 | 1.7 |  |
| CCCCc1nc(SC)c(C(=O)O)n1Cc1ccc(-c2ccccc2S(=O)(=O)NC(=O)NCc2ccccc2)cc1 |  | 17 |  |  |  |
| CCCCc1nc(SC)c(C(C)(O)C(=O)O)n1Cc1ccc(-c2ccccc2S(=O)(=O)NC(=O)NCCC)cc1 (configuration not stated) |  | 8.2 |  |  |  |
| CCCc1nc(SC)c(C(C)=O)n1Cc1ccc(-c2ccccc2S(=O)(=O)NC(=O)NCc2ccccc2)cc1 | 0.08 | 30 |  |  |  |

Molecules with a lower IC50 [4], results first:

| IC50 [3] [nM] | IC50 [4] [nM] | Compound | ED50 [1] [mg/kg] | ED50 [2] [mg/kg] | ID50 [2] [mg/kg] |
| --- | --- | --- | --- | --- | --- |
| 0.06 | 0.8 | CCCCc1nc(SC)c(C(=O)CS(=O)(=O)c2ccc(F)cc2)n1Cc1ccc(-c2ccccc2S(=O)(=O)NC(=O)NCc2ccccc2)cc1 | 0.12 | > 3 |  |
| 0.02 | 3.5 | CCCc1nc(SC)c(C(=O)C[S+]([O-])c2ccccc2)n1Cc1ccc(-c2ccccc2S(=O)(=O)NC(=O)NCc2cccs2)cc1 (configuration not stated) |  | 1.4 |  |
| 0.04 | 1.7 | CCCCc1nc(SC)c(C(=O)CS(=O)(=O)c2ccccc2)n1Cc1ccc(-c2ccccc2S(=O)(=O)NC(=O)NCc2ccccc2)cc1 | 0.02 | > 3 |  |
| 0.08 | 2.8 | CCCc1nc(SC)c(C(=O)C[S+]([O-])c2ccccc2)n1Cc1ccc(-c2ccccc2S(=O)(=O)NC(=O)NCc2ccccc2)cc1 (configuration not stated) | 0.04 | 0.8 |  |
| 0.3 | 4 | CCCc1nc(SC)c(C(=O)C[S+]([O-])c2ccccc2)n1Cc1ccc(-c2ccccc2S(=O)(=O)NC(=O)NCC2CCCCC2)cc1 (configuration not stated) |  | 3.1 |  |
| 0.1 | 2.1 | CCCc1nc(SC)c(C(=O)CS(=O)(=O)c2ccc(OC)cc2)n1Cc1ccc(-c2ccccc2S(=O)(=O)NC(=O)NCc2ccccc2)cc1 | 0.07 | 2 |  |
| 0.09 | 1 | CCCCc1nc(SC)c(C(=O)CC(=O)OCC)n1Cc1ccc(-c2ccccc2S(=O)(=O)NC(=O)NCc2ccccc2)cc1 |  |  |  |
| 0.07 | 1.4 | CCCc1nc(SC)c(C(=O)C[S+]([O-])c2ccc(C)cc2)n1Cc1ccc(-c2ccccc2S(=O)(=O)NC(=O)NCc2ccccc2)cc1 (single isomer, unassigned; 7g) | 0.03 | 1.5 |  |
| 0.04 | 3 | CCCCc1nc(SC)c(C(=O)C[S+]([O-])c2ccccc2)n1Cc1ccc(-c2ccccc2S(=O)(=O)NC(=O)NCc2ccccc2)cc1 (configuration not stated) | 0.12 | 1.6 |  |
| 0.03 | 4.2 | CCCc1nc(SC)c(C(=O)C[S+]([O-])c2ccc(C)cc2)n1Cc1ccc(-c2ccccc2S(=O)(=O)NC(=O)NCc2ccccc2)cc1 (single isomer, unassigned; 7h) |  |  | 1.5 |
| 0.09 | 2.7 | CCCc1nc(SC)c(C(=O)CS(=O)(=O)c2ccccc2)n1Cc1ccc(-c2ccccc2S(=O)(=O)NC(=O)NCc2ccccc2)cc1 | 0.04 | > 3 |  |
| 0.07 | 1.5 | CCc1nc(SC)c(C(=O)C[S+]([O-])c2ccccc2)n1Cc1ccc(-c2ccccc2S(=O)(=O)NC(=O)NCc2ccccc2)cc1 (configuration not stated) | 0.1 | 2 |  |

Reference: ChEMBL document CHEMBL1151521, “Balanced AT1 and AT2 angiotensin II antagonists. III. potent and orally active 5--ketosulfoxide imidazolyl biphenyl sulfonylureas” (Bioorg Med Chem Lett, 1995)
